For orientation: AC50 means the midpoint of the concentration-response curve, whichever way the signal moves. In general, viability refers to a per cent measure of how many cells are alive, often set against a control. Low readings indicate more harm to the cells, high ones less harm to the cells.

Where two headings read alike, the source gives them in different places.

Data set [1] concerns luciferase-expressing P. berghei liver stage parasites in HepG2 cells. Description: Inhibition of liver-stage development assay (ILSDA), Method 2 (WRAIR, 96-well). Type of data set: cell-based, Plasmodium berghei. The following applies: for Activity direction (Decrease / Inactive): P. berghei liver stage; for Max Resp (signal direction of the dose response): Decrease = decreasing P. berghei viability with dose, Increase = increasing signal, Inactive = no dose response.

For data set [2], the system named is Plasmodium falciparum Dd2 asexual blood stage parasites. Nature of the data set: microbe, parasite or virus in culture. Set-up: species or system Plasmodium falciparum Dd2 in human erythrocytes; single determination (one 11-point concentration-response curve). The following applies: Plasmodium falciparum, DD2, Erythrocyte, 72 h; read-out: AC50.
A short description of another data set: in vitro. To be noted: human, hepg2-a16-cd81egfp cells.
Setting [3] is: Plasmodium berghei, HepG2, P. berghei liver stage, Method 2, dose response, read-out: AC50.
Where [4] appears, read: Plasmodium berghei, HepG2, P. berghei liver stage, Method 2, dose response, read-out: Log AC50 (converted).
Setting [5] is: Plasmodium berghei, HepG2, Method 2, Hill fit, 50% of maximum activity response, read-out: AC50.
The mark [6] stands for this setting: Plasmodium berghei, HepG2, Method 2, log10 of molar AC50 from Hill fit, read-out: Log AC50 (converted).

Regarding `Clc1cnccc1CN1CC(CNc2ccccc2)C2(C1)CN(c1ccccc1)C2` (stereo not drawn) [NCGC00416018-01], the “Activity direction (Decrease / Inactive)” value in data set [1] (Method 2, dose response) was “Inactive”. Moreover, in data set [2], the AC50 was found to be 13.7 µM.
As for `CC(C)CCN1CC(CN[S+](=O)([O-])c2ccccc2)C2(C1)CN(c1ccccc1)C2` (stereo not drawn) [NCGC00415920-01], the “Activity direction (Decrease / Inactive)” value in data set [1] (Method 2, dose response) is on record as “Decrease”. The AC50 in data set [1] (setting [3]) and in data set [1] (setting [4]) was 2.82 µM each time.
For `O=C1C(c2ccc(C(F)(F)F)cc2)=C(Nc2ccc(Cl)cc2)c2ccccc21` [NCGC00107304], the “Max Resp (signal direction of the dose response)” value (“Max Resp” below) in data set [1] (Method 2) was “Inactive”.
On to `O=[S+]([O-])(NCC1CN(Cc2ccc(O)cc2)CC12CN(c1ccccc1)C2)c1ccccc1` (stereo not drawn) [NCGC00415939-01], for which the “Activity direction (Decrease / Inactive)” value in data set [1] (Method 2, dose response) was “Inactive”. For the same molecule, the AC50 in data set [2] amounted to 6.68 µM.
For `O=C(NCC1CN(C(=O)Cc2cccc(OC(F)(F)F)c2)CC12CN(c1ccccc1)C2)c1ccccc1` (stereo not drawn) [NCGC00415900-01], the “Activity direction (Decrease / Inactive)” value in data set [1] (Method 2, dose response) is recorded as “Inactive”.
In the case of `CC(=O)N1CCN(C(=O)c2ccc3c(c2)NC(C)(COc2ccc4[nH]ccc4c2)CO3)CC1` (stereo not drawn) [NCGC00416302], the “Activity direction (Decrease / Inactive)” value in data set [1] (Method 2, dose response) is listed as “Inactive”.
As for `CCCN1C(CC(C)C)=N[S+](=O)([O-])c2cc(NC(=O)C(C)C)ccc21` [NCGC00473220-01], the “Activity direction (Decrease / Inactive)” value in data set [1] (Method 2, dose response) is on record as “Decrease”. In addition, the AC50 in data set [1] (setting [3]) and in data set [1] (setting [4]) was 1.12 µM in each case.
Consider `CC(=O)Nc1ccc2c(c1)[S+](=O)([O-])N=C(CC(C)C)N2c1ccccc1` [NCGC00475154-01], for which the “Activity direction (Decrease / Inactive)” value in data set [1] (Method 2, dose response) was “Inactive”.
On to `O=C(O)c1cccc(CN2CC(CNC(=O)c3ccccc3)C3(C2)CN(c2ccccc2)C3)c1` (stereo not drawn) [NCGC00415857-01], for which, in data set [1] (Method 2, dose response), the “Activity direction (Decrease / Inactive)” value was “Decrease”. Besides, the AC50 in data set [1] (setting [3]) and in data set [1] (setting [4]) was 0.891 µM throughout.
As for `CC(=O)Nc1ccc2c(c1)[S+](=O)([O-])N=C(CC(C)C)N2CC(C)C` [NCGC00473311-01], the “Activity direction (Decrease / Inactive)” value in data set [1] (Method 2, dose response) is listed as “Inactive”.
On to `COc1ccc(NC2=C(c3ccc(C(F)(F)F)cc3)C(=O)c3ccccc32)cc1` [NCGC00107310], for which the “Max Resp” value in data set [1] (Method 2) was “Decrease”. For the same molecule, the AC50 in data set [1] (setting [5]) and in data set [1] (setting [6]) was 0.282 µM throughout.
For `c1ccc(NCC2CN(Cc3ccccn3)CC23CN(c2ccccc2)C3)cc1` (stereo not drawn) [NCGC00415982-01], the “Activity direction (Decrease / Inactive)” value in data set [1] (Method 2, dose response) is listed as “Inactive”.
Take `CCC(C)C1=N[S+](=O)([O-])c2cc(NC(=O)c3ccco3)ccc2N1c1ccccc1` (stereo not drawn) [NCGC00473608-01]: in data set [1] (Method 2, dose response), the “Activity direction (Decrease / Inactive)” value was “Decrease”. Moreover, the half-maximal activity concentration (AC50) in data set [1] (setting [3]) and in data set [1] (setting [4]) was 3.98 µM throughout.
With `Cc1nc2c(c(N3CCCC(COc4cccc(F)c4)C3)n1)CCNCC2` (stereo not drawn) [NCGC00440030-01], the “Activity direction (Decrease / Inactive)” value in data set [1] (Method 2, dose response) is listed as “Inactive”. For the same molecule, the AC50 in data set [2] is 8.41 µM.
As for `O=c1[nH]c(N2CCOCC2)nc2c1CCN(Cc1cc(Cl)ccc1F)CC2` [NCGC00440651], the “Activity direction (Decrease / Inactive)” value in data set [1] (Method 2, dose response) is on record as “Decrease”. In addition, the AC50 in data set [1] (setting [3]) and in data set [1] (setting [4]) was 0.2 µM throughout.
As to `Cc1ccc(NC2=C(c3ccc(C(F)(F)F)cc3)C(=O)c3ccccc32)cc1C` [NCGC00107300], the “Max Resp” value in data set [1] (Method 2) was “Decrease”. Also, the AC50 in data set [1] (setting [5]) and in data set [1] (setting [6]) was 0.398 µM each time.
Consider `c1ccc(OCC2CN(Cc3ccc4[nH]ccc4c3)CC23CN(c2ccccc2)C3)cc1` (stereo not drawn) [NCGC00415812-01], for which the “Activity direction (Decrease / Inactive)” value in data set [1] (Method 2, dose response) is on record as “Inactive”.
For `Cc1ccc(C)c(NC2=C(c3ccc(C(F)(F)F)cc3)C(=O)c3ccccc32)c1` [NCGC00107302], the “Max Resp” value in data set [1] (Method 2) was “Decrease”. The AC50 in data set [1] (setting [5]) and in data set [1] (setting [6]) was 0.398 µM each time.
For `Cc1ccc(NC2=C(c3ccc(C(F)(F)F)cc3)C(=O)c3ccccc32)cc1F` [NCGC00107266], in data set [1] (Method 2), the “Max Resp” value is recorded as “Decrease”. Also, the AC50 in data set [1] (setting [5]) and in data set [1] (setting [6]) was 0.112 µM throughout.
As for `CCC1=N[S+](=O)([O-])c2cc(NC(=O)C3CC3)ccc2N1CC(C)C` [NCGC00475158-01], the “Activity direction (Decrease / Inactive)” value in data set [1] (Method 2, dose response) is listed as “Inactive”.
Turning to `Oc1ccccc1CN1CC(CNc2cccnc2)C2(C1)CN(c1ccccc1)C2` (stereo not drawn) [NCGC00415924-01], the “Activity direction (Decrease / Inactive)” value in data set [1] (Method 2, dose response) was “Inactive”. For the same molecule, the AC50 in data set [2] is 10.9 µM.
Regarding `Cc1ccc2[nH]c(-c3ccccc3)cc(=O)c2c1` [MLS000112473-01], the “Max Resp” value in data set [1] (Method 2) was “Decrease”. The AC50 is 5.62 µM in data set [1] (setting [5]), 5.62 µM in data set [1] (setting [6]) and 4.73 µM in data set [2].
As to `CC1CCc2cc(F)ccc2N1C(=O)CSc1nnc2c(n1)[nH]c1ccccc12` (stereo not drawn) [MLS000557140-01], the “Max Resp” value in data set [1] (Method 2) is on record as “Decrease”. Moreover, the AC50 was 5.62 µM in data set [1] (setting [5]), 5.62 µM in data set [1] (setting [6]) and 7.5 µM in data set [2].
Turning to `O=C(Nc1ncccc1O)c1ccc(S(=O)(=O)Nc2ccccc2)cc1` [MLS001099437-01], the “Max Resp” value in data set [1] (Method 2) is recorded as “Inactive”.
On to `N#Cc1cccc(CN2CC(CNc3ccccc3)C3(C2)CN(c2ccccc2)C3)c1` (stereo not drawn) [NCGC00415808-01], for which the “Activity direction (Decrease / Inactive)” value in data set [1] (Method 2, dose response) was “Decrease”. The AC50 in data set [1] (setting [3]) and in data set [1] (setting [4]) was 2.24 µM in each case.
Take `CC(C)CC1=N[S+](=O)([O-])c2cc(NC(=O)C3CC3)ccc2N1c1ccccc1` [NCGC00475156-01]: the “Activity direction (Decrease / Inactive)” value in data set [1] (Method 2, dose response) is given as “Decrease”. The AC50 in data set [1] (setting [3]) and in data set [1] (setting [4]) was 3.16 µM throughout.
For the molecule `N#C/C(=C\c1ccc(Sc2ccc(Cl)cc2)o1)c1nc2ccccc2[nH]1` [MLS000579372-01], the “Max Resp” value in data set [1] (Method 2) is on record as “Decrease”. The half-maximal activity concentration (AC50) in data set [1] (setting [5]) was 0.501 µM; in data set [1] (setting [6]), 0.501 µM; in data set [2], 2.99 µM.
With `Cc1cccc(N2CCN(c3nc4ccccc4c4nnc(C)n34)CC2)c1C` [NCGC00107423], the “Max Resp” value in data set [1] (Method 2) is listed as “Inactive”.
As to `CCCCCCCc1c(C)[nH]c(N2CCOCC2)nc1=O` [MLS000531187-01], the “Max Resp” value in data set [1] (Method 2) was “Decrease”. In addition, the AC50 in data set [1] (setting [5]) is 5.62 µM; in data set [1] (setting [6]) it was 5.62 µM; in data set [2], 5.31 µM.
Regarding `CC(C)C1=N[S+](=O)([O-])c2cc(NC(=O)c3ccco3)ccc2N1c1ccccc1` [NCGC00473412-01], the “Activity direction (Decrease / Inactive)” value in data set [1] (Method 2, dose response) is “Inactive”.
Turning to `CC(C)c1ccc(CN2CC(CNc3cccnc3)C3(C2)CN(c2ccccc2)C3)cc1` (stereo not drawn) [NCGC00415809-01], the “Activity direction (Decrease / Inactive)” value in data set [1] (Method 2, dose response) is on record as “Inactive”. Further, in data set [2], the AC50 stood at 4.85 µM.
For the molecule `Cc1cccc(N(C)c2nc3ccccc3c3nnc(C)n23)c1` [NCGC00126108], the “Max Resp” value in data set [1] (Method 2) is recorded as “Decrease”. In data set [1] (Method 2, Hill fit, 50% of maximum activity response, read-out: AC50), the AC50 is 0.2 µM. The “Log AC50 (M)” value in data set [1] (Method 2, log10 of molar AC50 from Hill fit) was -6.700 M.
In “in vitro”, `COC(=O)C1=C(C)NC(C)=C(C(=O)OCCCN2CCC(c3ccccc3)(c3ccccc3)CC2)C1c1cccc([N+](=O)[O-])c1` (stereo not drawn) [NCGC00163135] returned a viability at 3 µM of 81%.
In the case of `C=C[C@]1(C)C[C@@H](OC(=O)CSC(C)(C)CNC(=O)[C@H](N)C(C)C)[C@]2(C)[C@H](C)CC[C@]3(CCC(=O)[C@H]32)[C@@H](C)[C@@H]1O` [NCGC00167968], in the data set “in vitro” (% viability), the viability at 3 µM was 87.5%.

Values taken from publication PMC7822874, “Chemoprotective antimalarials identified through quantitative high-throughput screening of Plasmodium blood and liver stage parasites” (Scientific Reports, 2021).
